{"source": "patent US8809386B2", "about": "“Use of dynamin ring stabilizers” (Children's Medical Research Institute, priority 2009, dated 2014)", "key": {"[1]": {"test_system": "truncated dynamin I construct known as GG2", "assay": "Basal GTPase activity of assembly-incompetent dynamin construct GG2", "assay_type": "biochemical", "conditions": "FIG. 5", "excerpt": "FIG. 5 is a graph showing the basal GTPase activity of the truncated dynamin I construct known as GG2, containing only the GTPase domain linked to a small part of the GED domain (Chappie et al 2009). Unlike full length dynamin this construct is known to be unable to self-assemble or to form rings. Bis-T-22 and -23 and imminodyn-22 have no effect on the basal activity of this assembly-incompetent construct.\nTo verify that ring stabilizers require dynamin oligomerisation, a recombinant form of dynamin, called GG-2, which is dimeric yet is unable to self-associate into higher order oligomers (Chappie et al 2009) was tested. Ring stabilizers are unable to stimulate the basal activity of such constructs (FIG. 5)."}, "[2]": {"target": "T1, full length dynamin I (UniProt Q05193)", "T1 construct": "rows headed: basal rate of GTP hydrolysis of dynamin", "T1 sequence (Q05193 1-864)": "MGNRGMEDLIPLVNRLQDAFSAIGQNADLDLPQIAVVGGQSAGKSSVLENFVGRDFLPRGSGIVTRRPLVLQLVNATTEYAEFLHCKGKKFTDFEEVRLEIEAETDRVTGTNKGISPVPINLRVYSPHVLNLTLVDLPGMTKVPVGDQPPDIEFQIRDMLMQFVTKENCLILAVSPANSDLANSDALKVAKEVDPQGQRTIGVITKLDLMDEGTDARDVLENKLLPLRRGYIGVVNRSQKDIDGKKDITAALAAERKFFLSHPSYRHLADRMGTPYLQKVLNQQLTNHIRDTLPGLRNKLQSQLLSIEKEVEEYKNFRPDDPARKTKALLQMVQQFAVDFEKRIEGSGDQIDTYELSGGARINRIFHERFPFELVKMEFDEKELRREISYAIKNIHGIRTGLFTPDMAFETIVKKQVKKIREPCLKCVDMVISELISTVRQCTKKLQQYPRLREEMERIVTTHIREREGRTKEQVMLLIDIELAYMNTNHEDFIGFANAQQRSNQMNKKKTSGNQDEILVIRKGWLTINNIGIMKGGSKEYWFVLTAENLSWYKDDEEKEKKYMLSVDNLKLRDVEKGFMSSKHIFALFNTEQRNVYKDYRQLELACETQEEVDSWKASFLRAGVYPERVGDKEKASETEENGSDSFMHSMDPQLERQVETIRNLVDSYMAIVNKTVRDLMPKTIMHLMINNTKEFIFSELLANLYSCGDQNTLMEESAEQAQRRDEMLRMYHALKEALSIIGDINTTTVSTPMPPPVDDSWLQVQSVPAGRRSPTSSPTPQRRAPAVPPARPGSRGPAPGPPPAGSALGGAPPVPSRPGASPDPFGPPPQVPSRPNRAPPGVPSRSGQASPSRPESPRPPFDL", "assay": "Basal dynamin GTPase activity in the absence of PS liposomes or other template (ring stabilizer activity)", "assay_type": "biochemical, sheep", "conditions": "0.2 μM dyn1, 7 μM compound, 10 μM Gsn-F-actin complexes, FIG. 18"}, "[3]": {"test_system": "dynamin I", "assay": "Dynamin self-assembly assay, high speed centrifugation at decreasing NaCl", "assay_type": "biochemical", "conditions": "dynamin 520 nM", "procedure": "This dynamin self-assembly assay was performed with native dynamin ([…]) using the Hepes column buffer described above in Example 1.1, (with the addition of 1% DMSO as described above). Bis-T effects were measured by pre-incubating the dynamin with the indicated Bis-T concentrations for 10 min at room temperature (22° C.). NaCl concentrations were varied from a stock in 200 mM NaCl. After the incubation the tubes were transferred to a TLA120.2 rotor (Beckman) and centrifuged in a tabletop ultracentrifuge (Optima TLX, Beckman) at 100,000 g for 20 min, and the supernatants (S) and pellets (P) were collected, precipitated with trichloracetic acid, solubilised in SDS sample buffer and separated on SDS gels.\nA block in ring disassembly should be manifested as an accumulation of rings in vitro. Dynamin self-assembles into rings in the absence of any cofactors when the buffer ionic strength is decreased (Song et al. 2004). To determine whether Bis-T compounds regulate dynamin-dynamin interactions a well-established method of high speed centrifugation in decreasing amounts of NaCl to collect rings in the pellet (Warnock et al. 1996) was used. Higher concentrations of dynamin (520 nM) and dynamin was visualized by Coomassie staining on SDS gels (FIG. 6). As reported by others, dynamin is in the supernatant at ≧40 mM NaCl, but self-assembled at ≦20 mM NaCl and is found in the pellet. […]"}, "[4]": {"test_system": "rat brain synaptosomes", "assay": "EM analysis of endocytic pits in KCl-depolarised rat brain synaptosomes", "assay_type": "cell-based", "conditions": "30 min (100 μM), depolarised with KCl, FIG. 10B", "excerpt": "When vesicles are endocytosed via the clathrin-dependent pathway, they are well known to be internalised as omega shaped figures close to the plasma membrane with partially constricted and short necks. These can be detected by transmission electron microscopy (EM) at a low frequency. […] In contrast to these observations, a dynamin ring stabilizer causes accumulation of clathrin coated pits in cells with two distinctive features: the vesicle necks are highly elongated and are encircled by electron dense rings. […] No rings or trapped vesicles were detected when the synaptosomes were unstimulated (FIG. 10B top). This mimics the in vitro observations on purified dynamin I described earlier which forms single rings (FIG. 9)."}, "[5]": {"test_system": "Human lymphoblasts (which express dynamin II)", "assay": "EM analysis of clathrin coated pits in human lymphoblasts", "assay_type": "cell-based", "conditions": "30 min (Bis-T-22 100 μM), FIG. 10A", "excerpt": "When vesicles are endocytosed via the clathrin-dependent pathway, they are well known to be internalised as omega shaped figures close to the plasma membrane with partially constricted and short necks. These can be detected by transmission electron microscopy (EM) at a low frequency."}, "[6]": {"target": "T2, full length dynamin I (Ovis aries, UniProt A0ACI6NZN1)", "T2 sequence (A0ACI6NZN1 1-864)": "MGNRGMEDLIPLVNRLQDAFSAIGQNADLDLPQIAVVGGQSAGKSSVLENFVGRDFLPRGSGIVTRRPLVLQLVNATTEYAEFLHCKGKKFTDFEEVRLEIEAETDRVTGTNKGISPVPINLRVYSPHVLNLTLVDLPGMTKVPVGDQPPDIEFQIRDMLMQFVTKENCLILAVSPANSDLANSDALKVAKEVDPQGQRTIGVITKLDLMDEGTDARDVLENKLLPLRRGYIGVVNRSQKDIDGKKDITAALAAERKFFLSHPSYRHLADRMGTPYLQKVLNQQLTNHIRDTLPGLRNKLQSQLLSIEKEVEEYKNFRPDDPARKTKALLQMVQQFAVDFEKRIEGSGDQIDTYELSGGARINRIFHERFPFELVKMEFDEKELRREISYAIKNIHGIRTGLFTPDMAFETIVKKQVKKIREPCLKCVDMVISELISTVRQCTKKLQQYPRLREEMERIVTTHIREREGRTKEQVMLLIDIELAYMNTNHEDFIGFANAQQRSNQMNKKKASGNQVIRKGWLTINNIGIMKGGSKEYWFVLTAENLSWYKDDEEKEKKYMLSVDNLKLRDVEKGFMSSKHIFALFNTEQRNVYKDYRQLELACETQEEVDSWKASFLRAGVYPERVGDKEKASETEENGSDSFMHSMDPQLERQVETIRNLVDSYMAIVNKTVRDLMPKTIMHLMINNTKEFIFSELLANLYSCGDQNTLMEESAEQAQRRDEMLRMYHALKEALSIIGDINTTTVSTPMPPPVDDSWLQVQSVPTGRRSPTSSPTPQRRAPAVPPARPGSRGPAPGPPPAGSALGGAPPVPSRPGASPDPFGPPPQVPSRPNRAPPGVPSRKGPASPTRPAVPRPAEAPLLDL", "assay": "Basal dynamin GTPase activity in the absence of PS liposomes or other template (ring stabilizer activity)", "assay_type": "biochemical, sheep", "conditions": "for stimulation of basal dynamin GTPase activity in the presence of Tween-80: dynI 200 nM, Tween-80 0.06%, Bis-T series 10 μM, all other compounds 30 μM, FIG. 11B", "procedure": "The compounds were present at the indicated concentrations and the concentration causing half-maximal stimulation is shown as the EC50.\nDynamin I (50 nM) GTPase stimulation was performed in the absence of the detergent Tween-80 (and in the absence of any known activators such as PS liposomes, nanotubes or microtubules). […] The GTPase activity of dynamin I (dynI; 200 nM) was measured in the absence of lipid activators (and in the presence of standard Tween-80 at 0.06%).\nA compound (whether a dynamin inhibitor or not) can be identified as a dynamin ring stabilizer by assaying for its capacity to promote accumulation of dynamin rings and/or to inhibit disassembly of dynamin rings. […] GTPase activity of dynamin or dynamin rings can be determined by any conventionally known method (e.g., see Quan and Robinson. 2005). Such conditions include: (a) the absence of a helix assembly template such as liposomes, microtubules or lipid nanotubes, and (b) higher concentrations of dynamin than normally required for detecting template stimulated activity, typically 50-500 nM dynamin instead of 1-20 nM. Thus, ring stabilizer activity can be identified by the ability to stimulate the GTPase activity of full length dynamin in the absence of other stimulatory factors (such as PS liposomes, microtubules or nanotubes). Additional defining characteristics are available but are not essential if the first condition has been met. One such additional characteristic of ring stabilizer activity is that the stimulated activity occurs after a lag phase of a few minutes, rather than being an immediate activation in vitro. […] Such conditions typically mean utilising 50-200 nM dynamin in the absence of a template as distinct from higher concentrations where self-assembly is known to occur without the addition of a dynamin ring stabilizer.\nNext, a time course experiment of Bis-T-23 stimulation of dynamin GTPase (FIG. 3) was conducted. […] The lag phase is thought to indicate the time required for dynamin to assemble as rings."}, "[7]": {"target": "F-actin", "assay": "Actin co-sedimentation assay, dynamin-F-actin binding (Scatchard plot)", "conditions": "5 μM F-actin, centrifugation at 100,000×g, FIG. 14", "procedure": "Increasing concentrations of dynamin (free) were added to 5 μM of F-actin. After centrifugation at 100,000×g proteins were separated on SDS-PAGE and bands were analyzed using densitometry.\nTo determine whether dynamin affects the actin cytoskeleton, the question of whether dynamin might directly bind filamentous actin (F-actin) was tested. In particular, an actin co-sedimentation assay was performed in which F-actin sediments under high-speed centrifugation. If dynamin interacts with F-actin it would be expected to co-sediment, and thus be present in the pellet fraction. In the presence of F-actin, but not in its absence, the majority of dynamin was found in the pellet (FIG. 12, lanes 2 and 14). […] The Kd of dynamin for actin was approximately 0.4 μM, which is similar to the affinities of other actin binding proteins such as α-actinin 4 for actin (Weins et al. 2005).\nNext, the actin binding site was mapped to a region between amino acids 399 and 444 amino acids of dynamin II (dyn2) (FIG. 13). As predicted for an actin binding domain (Van et al. 1996), this region contains several positively charged amino acids conserved in all dynamin gene products from yeast to mammals. It is also alternatively spliced within different mammalian dynamin isoforms (called variant a and b in dynamins I and II) (see FIG. 13, SEQ ID No. 1-4). Site-directed mutagenesis was performed on conserved, charged residues within this actin binding domain to generate the putative ‘loss of function’ mutants, dynK/E (SEQ ID No. 9) and dynK/A (SEQ ID No. 10), and a putative ‘gain of function’ mutant, dynE/K (SEQ ID No. 11) (FIG. 13). […] All three mutant proteins had wild-type kinetic properties with respect to the basal and stimulated rate of GTP hydrolysis, indicating proper folding."}}, "data": [{"compound": "N#C/C(=C\\c1ccc(O)c(O)c1)C(=O)NCCCNC(=O)/C(C#N)=C/c1ccc(O)c(O)c1", "note": "[Bis-T-22, 2-cyano-N-{3-[2-cyano-3-(3,4-dihydroxyphenyl)-acryloylamino]-propyl}-3-(3,4-dihydroxyphenyl)-acrylamide]", "values": [{"measurement": "effect on basal GTPase activity of GG2", "setting": "[1]", "result": "no effect"}, {"measurement": "basal rate of GTP hydrolysis of dynamin", "setting": "[2]", "result": "stimulates dynamin's basal rate of GTP hydrolysis"}, {"measurement": "dynamin ring assembly (dynamin in pellet)", "setting": "[3]; 100 μM, intermediate salt concentrations", "result": "increased ring assembly"}, {"measurement": "dynamin ring assembly (dynamin in pellet)", "setting": "[3]; 300 μM, fixed 40 mM NaCl", "result": "promoted all dynamin to form rings"}, {"measurement": "trapped endocytic pits by EM", "setting": "[4]", "result": "trapped endocytic pits were detected that were encircled by a single electron dense ring"}, {"measurement": "clathrin coated pits by EM", "setting": "[5]", "result": "massive accumulation in all cells of clathrin coated pits with highly elongated necks"}]}, {"compound": "O=C(N/N=C/c1ccc(O)c(O)c1)c1cc2ccccc2cc1O", "note": "[Dynasore, 3-hydroxynaphthalene-2-carboxylic acid (3,4-dihydroxybenzylidene) hydrazide, reference compound]", "values": [{"measurement": "stimulation of basal dynamin GTPase activity in the absence of Tween-80", "setting": "[6]; Dynamin I 50 nM, no Tween-80, no activators, FIG. 11A", "result": "stimulated basal dynamin GTPase activity to similar extents as Bis-T-23"}, {"measurement": "stimulation of basal dynamin GTPase activity in the presence of Tween-80", "setting": "[6]", "result": "failed to stimulate basal GTPase activity"}]}, {"compound": "O=C(N/N=C/c1cc(O)c(O)cc1O)c1cc2ccccc2cc1O", "note": "[Dyngo-4a]", "values": [{"measurement": "stimulation of basal dynamin GTPase activity in the presence of Tween-80", "setting": "[6]", "result": "effective"}]}, {"compound": "N=c1oc2c(O)cccc2cc1C(=O)NCCCNC(=O)c1cc2cccc(O)c2oc1=N", "note": "[Iminodyn 20]", "values": [{"measurement": "ring stabilizer activity", "setting": "[6]; absence of PS, Table 2", "result": "no ring stabilizer activity"}]}, {"compound": "N=c1oc2c(O)c(O)ccc2cc1C(=O)NCCCNC(=O)c1cc2ccc(O)c(O)c2oc1=N", "note": "[Iminodyn 22]", "values": [{"measurement": "effect on basal GTPase activity of GG2", "setting": "[1]", "result": "no effect"}]}, {"compound": "dynE/K: ‘gain of function’ dynamin mutant in the actin binding domain (SEQ ID No. 11) (RTGLFTPDLAFEAIVKKQVVKLKKPCLKCVDLVIQKLISTVRQCTS; listed as Mus musculus)", "values": [{"measurement": "Kd", "setting": "[7]", "result": 30, "unit": "nM"}]}, {"compound": "dynK/A: ‘loss of function’ dynamin mutant in the actin binding domain (SEQ ID No. 10) (RTGLFTPDLAFEAIVAAQVVALAEPCLACVDLVIQELISTVRQCTS; listed as Mus musculus)", "values": [{"measurement": "Kd", "setting": "[7]", "result": 2800, "unit": "nM"}]}, {"compound": "dynK/E: ‘loss of function’ dynamin mutant in the actin binding domain (SEQ ID No. 9) (RTGLFTPDLAFEAIVEEQVVELEEPCLECVDLVIQELISTVRQCTS; listed as Mus musculus)", "values": [{"measurement": "Kd", "setting": "[7]", "result": 1700, "unit": "nM"}]}]}
